From patent publication US11044909B2, “Composition for destruction of microalgae or sphaerocarpus” (CUREARTH, INC., priority 2015, dated 2021)
Read-outs that look alike come from different tables or passages of the source.

What was measured:
Assay in all cases: Microalgae-destroying effect by IC50 measurement (cell count)
Format in all cases: cell-based
Chattonella Marina = conditions: 24 h, cultured 1 day, read-out: IC50 Chattonella Marina
Description: (§1) The IC50 value was obtained according to Equation 1: […]
(§2) First, the above-listed microalgae were cultured in a culture flask at a temperature of about 20° C. under light conditions, and a medium used was Guillard's f/2 medium which is commonly used in the art (Guillard R R L and Keller M D. Culturing dinoflagellates. In: Spector (Ed.), Dinoflagellates. New York: Academic Press; 1984, 391442).
(§3) After the cultured microalgae were transferred onto a 24-well plate, Chattonella Marina, Heterosigma circularisquama, Cochlodinium Polykrikoides, and Heterosigma akashiwo, which were in an exponential growth phase, were treated with Compounds 1 to 3, 5 to 10, 12, 13, 17 to 43, and 45 to 47 synthesized in Examples 1 to 3, 5 to 10, 12, 13, 17 to 43, and 45 to 47 at concentrations of 0.1 uM, 0.2 uM, 0.5 uM, 1 uM, 2 uM, and 5 uM, and then cultured for 1 day.
(§4) Control groups were not treated with any of the compounds synthesized in the above-identified examples. After incubation, the number of cells of each alga was counted using a Burker-Tukr hemocytometer, and IC50 values were calculated according to Equation 1 using SigmaPlot Version 11.2 software (Standard curve: the four-parameter logistic curve).

[1] = system: Heterocapsa Circularisquama; conditions: 24 h, cultured 1 day
Description: as §1, §2, §3, §4

Heterosigma Akashiwo = conditions: 24 h, cultured 1 day, read-out: IC50 Heterosigma Akashiwo
Description: as §1, §2, §3, §4

[2] = system: Cochlodinium Polykrikoides; conditions: Margalefidinium polykrikoides, 24 h, 0.1-5 uM, cultured 1 day, read-out: IC50 Cochlodinium Polykrikoides
Description: (§5) The IC50 value was obtained according to Equation 1:
(§6) The algicidal activity of each compound was calculated using Equation 2: Algicidal activity (%)=(1−Tt/Ct)×100 <Equation 2>
(§7) In Equation 2, T (treatment group) and C (control group) represent algae densities in cell counts when each compound was inoculated and was not inoculated, respectively, and t represents the number of days which had passed after the inoculation.
as §2, §3, §4

Microcystis aeruginosa = conditions: read-out: IC50 Microcystis aeruginosa
Description: as §5, §6, §7, §2
Microcystis aeruginosa was treated with Compounds 1 to 3, 5 to 10, 12, 13, 17 to 43, and 45 to 51 synthesized in Examples 1 to 3, 5 to 10, 12, 13, 17 to 43, and 45 to 51 at concentrations of 0.1 uM, 0.2 uM, 0.5 uM, 1 uM, 2 uM, 5 uM, 10 uM, 15 uM, and 20 uM and then cultured for 5 days.
as §4

[3] = Table 1, 3,4-dichlorobenzylamines, 0.1-5 uM
[4] = Table 1, 3,4-dichlorobenzylamines, 0.1-5 uM, read-out: IC50 Heterocapsa Circularisquama
[5] = Table 1, 3,4-dichlorobenzylamines
[6] = Microcystis aeruginosa, 120 h, Table 1, 3,4-dichlorobenzylamines, 0.1-20 uM, cultured 5 days

## Fc1ccc(NCc2ccc(Cl)c(Cl)c2)cc1 [Compound 23, (3,4-Dichloro-benzyl)-(4-fluoro-phenyl)-amine]
Chattonella Marina; [3]
  IC50: > 5000 nM
[1]; [4]
  IC50: > 5000 nM
Heterosigma Akashiwo; [3]
  IC50: 1540 nM
[2]; [5]
  IC50: > 5000 nM
Microcystis aeruginosa; [6]
  IC50: 11100 nM

## O=C(/C=C/c1ccc(Cl)c(Cl)c1)c1ccc(Cl)cc1 [Compound 24, 1-(4-Chloro-phenyl)-3-(3,4-dichloro-phenyl)-propenone]
Chattonella Marina; Table 2, 0.1-5 uM
  IC50: > 5000 nM
[1]; Table 2, 0.1-5 uM, read-out: IC50 Heterocapsa Circulariaquama
  IC50: > 5000 nM
Heterosigma Akashiwo; Table 2, 0.1-5 uM
  IC50: 1700 nM
[2]; Table 2
  IC50: 1330 nM
Microcystis aeruginosa; Microcystis aeruginosa, 120 h
  IC50: > 5000 nM

## Clc1ccc(CNc2ccc(Br)cc2)cc1Cl [Compound 25, (4-Bromo-phenyl)-(3,4-dichloro-benzyl)-amine]
Chattonella Marina; [3]
  IC50: > 5000 nM
[1]; [4]
  IC50: 2830 nM
Heterosigma Akashiwo; [3]
  IC50: 1190 nM
[2]; [5]
  IC50: 4000 nM
Microcystis aeruginosa; [6]
  IC50: 11100 nM

## Clc1ccc(CNCc2ccccn2)cc1Cl [Compound 26, (3,4-Dichloro-benzyl)-pyridin-2-ylmethyl-amine]
Chattonella Marina; [3]
  IC50: 3400 nM
[1]; [4]
  IC50: > 5000 nM
Heterosigma Akashiwo; [3]
  IC50: 720 nM
[2]; [5]
  IC50: > 5000 nM
Microcystis aeruginosa; [6]
  IC50: > 20000 nM

## Clc1ccc(CNCc2cccnc2)cc1Cl [Compound 27, (3,4-Dichloro-benzyl)-pyridin-3-ylmethyl-amine]
Chattonella Marina; [3]
  IC50: > 5000 nM
[1]; [4]
  IC50: 3550 nM
Heterosigma Akashiwo; [3]
  IC50: 790 nM
[2]; [5]
  IC50: 2000 nM
Microcystis aeruginosa; [6]
  IC50: > 20000 nM

## Clc1ccc(CNCc2ccncc2)cc1Cl [Compound 28, (3,4-Dichloro-benzyl)-pyridin-4-ylmethyl-amine]
Chattonella Marina; [3]
  IC50: > 5000 nM
[1]; [4]
  IC50: > 5000 nM
Heterosigma Akashiwo; [3]
  IC50: 2280 nM
[2]; [5]
  IC50: > 5000 nM
Microcystis aeruginosa; [6]
  IC50: 15200 nM

## Clc1ccc(CNCc2ccccc2)cc1Cl [Compound 29, Benzyl-(3,4-dichloro-benzyl)-amine]
Chattonella Marina; [3]
  IC50: 3460 nM
[1]; [4]
  IC50: 3230 nM
Heterosigma Akashiwo; [3]
  IC50: 600 nM
[2]; [5]
  IC50: 2750 nM
Microcystis aeruginosa; [6]
  IC50: 14400 nM

## Clc1ccc(CNCCc2ccncc2)cc1Cl [Compound 30, (3,4-Dichloro-benzyl)-(2-pyridin-4-yl-ethyl)-amine]
Chattonella Marina; [3]
  IC50: 3470 nM
[1]; [4]
  IC50: 1910 nM
Heterosigma Akashiwo; [3]
  IC50: 420 nM
[2]; [5]
  IC50: 2700 nM
Microcystis aeruginosa; [6]
  IC50: > 20000 nM

## Clc1ccc(CNCCc2cccnc2)cc1Cl [Compound 31, (3,4-Dichloro-benzyl)-(2-pyridin-3-yl-ethyl)-amine]
Chattonella Marina; [3]
  IC50: 3500 nM
[1]; [4]
  IC50: 1600 nM
Heterosigma Akashiwo; [3]
  IC50: 590 nM
[2]; [5]
  IC50: 424 nM
Microcystis aeruginosa; [6]
  IC50: > 20000 nM

## Clc1ccc(CNCCc2ccccn2)cc1Cl [Compound 32, (3,4-Dichloro-benzyl)-(2-pyridin-2-yl-ethyl)-amine]
Chattonella Marina; [3]
  IC50: 310 nM
[1]; [4]
  IC50: 1050 nM
Heterosigma Akashiwo; [3]
  IC50: 180 nM
[2]; [5]
  IC50: 500 nM
Microcystis aeruginosa; [6]
  IC50: 19600 nM

## Clc1ccc(CNCCc2ccccc2)cc1Cl [Compound 34, (3,4-Dichloro-benzyl)-phenethyl-amine]
Chattonella Marina; [3]
  IC50: 460 nM
[1]; [4]
  IC50: 1500 nM
Heterosigma Akashiwo; [3]
  IC50: 120 nM
[2]; [5]
  IC50: 875 nM
Microcystis aeruginosa; [6]
  IC50: 5970 nM

## Clc1ccc(CNC2CCCCCC2)cc1Cl [Compound 36, Cycloheptyl-(3,4-dichloro-benzyl)-amine]
Chattonella Marina; [3]
  IC50: 250 nM
[1]; [4]
  IC50: 690 nM
Heterosigma Akashiwo; [3]
  IC50: 263 nM
[2]; [5]
  IC50: 150 nM
Microcystis aeruginosa; [6]
  IC50: 3090 nM

## CCN(CC)CCCNCc1ccc(Cl)c(Cl)c1 [Compound 48, N′-(3,4-Dichloro-benzyl)-N, N-diethyl-propane-1,3-diamine.2HCl]
Microcystis aeruginosa; Table 1, 3,4-dichlorobenzylamines, 0.1-20 uM, cultured 5 days
  IC50: 780 nM

## CCCCN(CCCC)CCNCc1ccc(Cl)c(Cl)c1 [Compound 49, N,N-Dibutyl-N′-(3,4-dichlorobenzyl)ethane-1,2-diamine]
Microcystis aeruginosa; [6]
  IC50: 880 nM

## CCCCN(CCCC)CCCNCc1ccc(Cl)c(Cl)c1 [Compound 50, N,N-Dibutyl-N′-(3,4-dichlorobenzyl)propane-1,3-diamine]
Microcystis aeruginosa; [6]
  IC50: 540 nM

## OCCN(CCO)CCCNCc1ccc(Cl)c(Cl)c1 [Compound 51, 2-[[3-(3,4-Dichlorobenzylamino)propyl]-(2-hydroxyethyl)amino]ethanol]
Microcystis aeruginosa; [6]
  IC50: 2270 nM
